Results reported in patent US8685967B2, “Substituted triazolopyridines and analogs thereof” (Merck Sharp & Dohme Corp., priority 2009, dated 2014).

Target: T1, Human recombinant PDE10A1 (Homo sapiens, UniProt Q9Y233)
T1 construct: purchased BPS Bioscience, Inc
Assay: In Vitro PDE10 Assay (scintillation proximity assay, [3H]cAMP)
Type: biochemical
Conditions: PDE10A1 0.02 nM, 10 nM [3H]cAMP, 30 minutes at room temperature; Ki by Cheng and Prusoff
Experimental: PDE10A1 activity was measured in white opaque 384-well Opti-Plates (Perkin Elmer Life Sciences) using a scintillation proximity assay (GE Healthcare). Human recombinant PDE10A1 was purchased from BPS Bioscience, Inc. The reaction mixture contained PDE10A1 (0.02 nM), 10 nM [^3H]cAMP ([5′,8-^3H]Adenosine 3′,5′-cyclic phosphate, ammonium salt], Amersham) and various concentrations of compound in 50 mM Tris-HCl, pH 7.5, 8.3 mM MgCl2, […] and 0.2% bovine serum albumen in a total volume of 30 μl. The assay was initiated with the addition of substrate and was allowed to proceed for 30 minutes at room temperature before being stopped by the addition of 300 μg yttrium SPA PDE beads. The reaction mixtures were thoroughly mixed, and the beads were allowed to settle for 30 minutes. The plates were then counted in a TopCount scintillation counter. Under these conditions, less than 30% of the substrate was hydrolyzed in the absence of compound. Ki values were determined as described by Cheng and Prusoff (1973).

T1 sequence (Q9Y233 1-779 isoform Q9Y233-1): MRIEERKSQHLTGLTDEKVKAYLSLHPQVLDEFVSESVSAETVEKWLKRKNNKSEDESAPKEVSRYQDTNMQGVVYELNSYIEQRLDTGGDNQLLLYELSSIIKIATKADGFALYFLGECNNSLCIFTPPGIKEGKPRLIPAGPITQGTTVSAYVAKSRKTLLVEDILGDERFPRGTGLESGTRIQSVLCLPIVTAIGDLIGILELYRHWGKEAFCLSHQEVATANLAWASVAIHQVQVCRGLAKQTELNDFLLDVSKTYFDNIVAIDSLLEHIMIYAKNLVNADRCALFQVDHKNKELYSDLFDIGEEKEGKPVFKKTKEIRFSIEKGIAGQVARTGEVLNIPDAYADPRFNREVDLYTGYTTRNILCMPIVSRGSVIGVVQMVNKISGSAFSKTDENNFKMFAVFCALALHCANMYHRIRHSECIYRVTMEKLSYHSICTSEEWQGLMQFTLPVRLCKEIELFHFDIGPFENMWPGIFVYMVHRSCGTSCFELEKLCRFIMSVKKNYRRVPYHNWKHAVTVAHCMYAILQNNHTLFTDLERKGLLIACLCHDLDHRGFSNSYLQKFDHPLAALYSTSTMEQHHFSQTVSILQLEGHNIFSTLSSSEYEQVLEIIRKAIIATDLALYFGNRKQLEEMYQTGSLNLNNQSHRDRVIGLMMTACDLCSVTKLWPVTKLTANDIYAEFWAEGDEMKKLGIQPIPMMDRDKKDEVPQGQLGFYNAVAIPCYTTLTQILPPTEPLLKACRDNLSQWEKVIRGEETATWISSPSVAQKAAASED

SMILES | Ki [nM]
CC(C)(C)c1nnc2c(C(=O)NCCc3nc4cc(Cl)ccc4s3)cc(Br)cn12 [Example 1M] | < 10
CC(C)(C)c1nnc2c(C(=O)NCCc3nc4ccccc4s3)cc(Br)cn12 [Example 1N] | < 10
O=C(NCCc1nc2ccccc2[nH]1)c1cc(Br)cn2nc(C3CC3)nc12 [Example 2F] | < 10
COc1ccc2nc(CCNC(=O)c3cccn4c(C)nnc34)[nH]c2c1 [Example 1EE] | < 10
O=C(NCCc1nc2ccccc2[nH]1)c1cc(Br)cn2c(C3CC3)nnc12 [Example 1I] | < 50
Cc1nnc2c(C(=O)NCCc3nc4cc(Cl)ccc4n3C)cccn12 [Example 7K] | < 50
Cn1c(CCNC(=O)c2cccn3c(C4CC4)nnc23)nc2cc(Cl)ccc21 [Example 7A] | < 50
CC(C)(C)c1nnc2c(C(=O)NCCc3nc4ccccc4[nH]3)cc(F)cn12 [Example 1MM] | < 50
O=C(NCCc1nc2c(Cl)cc(C(F)(F)F)cc2[nH]1)c1cccn2c(C3CC3)nnc12 [Example 1VV] | < 10
O=C(NCCc1nc2cc(Cl)ccc2[nH]1)c1cccn2c(C3CCC3)nnc12 [Example 1BBB] | < 50
O=C(NCCc1nc2cc(Cl)ccc2[nH]1)c1cc(Br)cn2c(C3CC3)nnc12 [Example 1HH] | < 50
Cc1nc2c(C(=O)NCCc3nc4cc(Cl)ccc4[nH]3)cccn2n1 [Example 2B] | < 10
O=C(NCCc1nc2ccccc2[nH]1)c1cccn2c(C(F)(F)F)nnc12 [Example 1A] | < 50
Cn1c(CCNC(=O)c2cccn3c(C4CC4)nnc23)nc2ccccc21 [Example 7D] | < 50
CC(C)(C)c1nnc2c(C(=O)NCCCc3nc4ccccc4[nH]3)cc(C#CCO)cn12 [Example 5B] | < 50
CC(C)(C)c1nnc2c(C(=O)NCCc3nc4ccccc4[nH]3)cc(-c3ccncc3)cn12 [Example 4A] | < 50
O=C(NCCc1nc2cc(Cl)ccc2[nH]1)c1cccn2nc(Br)nc12 [Example 2G] | < 50
O=C(NCCc1nc2ccc(F)cc2[nH]1)c1cccn2c(C3CC3)nnc12 [Example 1T] | < 50
CC(C)(C)c1nnc2c(C(=O)NCCCc3nc4ccccc4[nH]3)cc(-c3cccnc3)cn12 [Example 4F] | < 50
CC(C)(C)c1nnc2c(C(=O)NCCc3nc4ccccc4[nH]3)cc(Br)cn12 [Example 1E] | < 50
COc1ccc2nc(CCNC(=O)c3cccn4c(C5CC5)nnc34)[nH]c2c1 [Example 1UU] | < 50
CCc1nnc2c(C(=O)NCCc3nc4cc(Cl)ccc4[nH]3)cccn12 [Example 1DD] | < 50
O=C(NCCc1nc2ccc(F)cc2[nH]1)c1cc(Br)cn2nc(C3CC3)nc12 [Example 2D] | < 50
CC(C)c1nnc2c(C(=O)NCCc3nc4ccccc4[nH]3)cccn12 [Example 1GG] | < 50
O=C(NCCc1nc2ccccc2[nH]1)c1cccn2c(C3CC3)nnc12 [Example 1BB] | < 50

SMILES | Ki [nM]
O=C(NCCc1nc2ccc(F)cc2[nH]1)c1cc(Br)cn2c(C3CC3)nnc12 [Example 1II] | < 50
CC(C)(C)c1nnc2c(C(=O)NCCCc3nc4ccccc4[nH]3)cc(Br)cn12 [Example 1Q] | < 10
CC(C)(C)c1nnc2c(C(=O)NCCCc3nc4ccccc4[nH]3)cccn12 [Example 1P] | < 10
O=C(NCCCc1nc2ccccc2[nH]1)c1cccn2c(C3CC3)nnc12 [Example 1O] | < 10
COc1ccc2nc(CCNC(=O)c3cccn4c(C5CCC5)nnc34)[nH]c2c1 [Example 1SS] | < 10
O=C(NCCc1nc2cc(Cl)c(F)cc2[nH]1)c1cccn2c(C3CC3)nnc12 [Example 1ZZ] | < 50
O=C(NCCc1nc2cc(Cl)ccc2[nH]1)c1cccn2c(Br)nnc12 [Example 1LL] | < 50
Cn1c(CCNC(=O)c2cccn3c(C(C)(C)C)nnc23)nc2cc(Cl)ccc21 [Example 7E] | < 50
O=C(NCCc1nc2cc(Cl)ccc2[nH]1)c1cc(F)cn2c(C3CC3)nnc12 [Example 1FFF] | < 50
O=C(NCCc1nc2cc(Cl)ccc2[nH]1)c1cccn2c(C3CC3)nnc12 [Example 1R] | < 50
CC(C)c1nnc2c(C(=O)NCCc3nc4cc(Cl)ccc4[nH]3)cccn12 [Example 1S] | < 50
Cc1nnc2c(C(=O)NCCc3nc4cc(Cl)ccc4[nH]3)cccn12 [Example 1FF] | < 50
CC(C)(C)c1nnc2c(C(=O)NCCc3nc4ccc(F)cc4[nH]3)cccn12 [Example 1AA] | < 50
CC(C)(C)c1nnc2c(C(=O)NCCc3nc4cc(Cl)ccc4[nH]3)cccn12 [Example 1Z] | < 10
CC(C)(C)c1nnc2c(C(=O)NCCCc3nc4ccccc4[nH]3)cc(-c3cccc(O)c3)cn12 [Example 4D] | < 10
CC(C)(C)c1nnc2c(C(=O)NCCCc3nc4ccccc4[nH]3)cc(-c3ccncc3)cn12 [Example 4E] | < 50
Cn1c(CCCNc2cccc3ccn4c(C(F)(F)F)nnc4c23)nc2ccccc21 [Example 8C] | < 50
Cn1c(CCCNc2cccc3ccn4c(C(C)(C)C)nnc4c23)nc2ccccc21 [Example 8B] | < 50
O=C(NCCc1nc2ccccc2[nH]1)c1cc(F)cn2c(C3CC3)nnc12 [Example 1NN] | < 50
O=C(NCCc1nc2cc(Cl)ccc2[nH]1)c1cccn2c(C(F)(F)F)nnc12 [Example 1B] | < 50
Cn1c(CCNc2cccc3ccn4c(C(F)(F)F)nnc4c23)nc2ccccc21 [Example 8] | < 50
COc1ccc2nc(CCNC(=O)c3cccn4c(C(C)C)nnc34)[nH]c2c1 [Example 1XX] | < 50
CCn1c(CCNC(=O)c2cccn3c(C(C)C)nnc23)nc2ccccc21 [Example 7O] | < 10
CC(C)c1nnc2c(C(=O)NCCc3nc4cc(Cl)c(F)cc4[nH]3)cccn12 [Example 1DDD] | < 50
